Laboratory results: patent US20170190705A1, “Compositions and Methods for Inhibiting BMP” (THE BRIGHAM AND WOMAN'S HOSPITAL, INC., priority 2014, published 2017)

What was measured:
Assay type in all cases: biochemical
GRK6 = GRK6 (Homo sapiens, UniProt P43250); test: Kinome profiling GRK6; conditions: read-out: Inhibitory activity GRK6; for inhibition at 0.1 µM: 100 nM
Protocol: (§1) . The kinome-wide selectivity was determined following the methods previously reported by Mohedas et al., ACS Chem Biol 2013, 8, 1291-1302 and Sanvitale et al., PLoS One 2013, 8, e62721.

TRKA = TRKA (Homo sapiens, UniProt P04629); test: Kinome profiling TRKA; conditions: read-out: Inhibitory activity TRKA; for inhibition at 0.1 µM: 100 nM
TRKA, sequence (P04629 33-796): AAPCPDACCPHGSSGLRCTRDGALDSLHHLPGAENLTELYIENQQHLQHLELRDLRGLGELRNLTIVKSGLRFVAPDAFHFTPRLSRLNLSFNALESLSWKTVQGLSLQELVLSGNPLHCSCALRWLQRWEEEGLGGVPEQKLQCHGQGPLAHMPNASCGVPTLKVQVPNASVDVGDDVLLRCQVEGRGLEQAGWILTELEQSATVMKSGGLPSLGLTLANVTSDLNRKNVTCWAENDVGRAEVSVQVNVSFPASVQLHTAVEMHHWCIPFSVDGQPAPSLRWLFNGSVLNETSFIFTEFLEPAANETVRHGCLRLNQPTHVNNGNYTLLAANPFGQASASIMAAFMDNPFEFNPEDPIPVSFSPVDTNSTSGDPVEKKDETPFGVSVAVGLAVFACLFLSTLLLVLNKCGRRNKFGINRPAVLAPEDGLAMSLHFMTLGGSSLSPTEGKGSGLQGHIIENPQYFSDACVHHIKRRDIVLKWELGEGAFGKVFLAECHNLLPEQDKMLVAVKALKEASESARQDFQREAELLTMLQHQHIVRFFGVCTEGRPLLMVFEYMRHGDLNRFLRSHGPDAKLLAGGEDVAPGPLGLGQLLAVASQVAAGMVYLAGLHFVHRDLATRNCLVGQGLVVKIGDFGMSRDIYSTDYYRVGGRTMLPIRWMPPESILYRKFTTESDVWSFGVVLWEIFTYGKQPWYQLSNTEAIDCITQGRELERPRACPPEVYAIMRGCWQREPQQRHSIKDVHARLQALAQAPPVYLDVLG
Protocol: as §1

EPHA3 = target: T1, EPHA3 (Homo sapiens, UniProt P29320); test: Kinome profiling EPHA3; conditions: read-out: Inhibitory activity EPHA3; for inhibition at 0.1 µM: 100 nM
T1 sequence (P29320 21-983): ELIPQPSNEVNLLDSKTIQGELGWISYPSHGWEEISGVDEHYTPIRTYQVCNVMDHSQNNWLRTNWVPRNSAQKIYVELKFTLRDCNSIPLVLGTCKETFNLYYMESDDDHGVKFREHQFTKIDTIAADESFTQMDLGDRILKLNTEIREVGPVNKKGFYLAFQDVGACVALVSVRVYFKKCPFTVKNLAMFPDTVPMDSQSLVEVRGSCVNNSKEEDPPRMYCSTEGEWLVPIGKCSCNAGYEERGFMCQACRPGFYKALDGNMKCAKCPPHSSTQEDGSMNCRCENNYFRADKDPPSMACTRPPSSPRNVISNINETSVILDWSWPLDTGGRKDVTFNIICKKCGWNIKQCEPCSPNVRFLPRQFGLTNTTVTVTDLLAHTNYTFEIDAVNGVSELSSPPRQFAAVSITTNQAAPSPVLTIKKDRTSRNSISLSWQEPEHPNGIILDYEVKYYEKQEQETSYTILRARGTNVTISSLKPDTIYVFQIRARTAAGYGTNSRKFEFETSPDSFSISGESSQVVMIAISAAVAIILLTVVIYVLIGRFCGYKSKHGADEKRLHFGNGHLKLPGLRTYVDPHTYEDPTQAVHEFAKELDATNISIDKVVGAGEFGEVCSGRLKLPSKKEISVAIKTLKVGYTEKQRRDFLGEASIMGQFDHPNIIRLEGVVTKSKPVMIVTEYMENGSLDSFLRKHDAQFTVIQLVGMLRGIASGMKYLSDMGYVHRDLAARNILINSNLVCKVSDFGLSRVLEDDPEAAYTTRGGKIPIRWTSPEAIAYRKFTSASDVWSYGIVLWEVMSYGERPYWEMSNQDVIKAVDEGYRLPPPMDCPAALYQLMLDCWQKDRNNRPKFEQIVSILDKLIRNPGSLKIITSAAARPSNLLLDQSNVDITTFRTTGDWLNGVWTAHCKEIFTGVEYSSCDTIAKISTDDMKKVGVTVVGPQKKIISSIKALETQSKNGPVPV
Protocol: as §1

MARK1 = MARK1 (Homo sapiens, UniProt Q9P0L2); test: Kinome profiling MARK1; conditions: read-out: Inhibitory activity MARK1; for inhibition at 0.1 µM: 100 nM
MARK1, sequence (Q9P0L2 whole entry): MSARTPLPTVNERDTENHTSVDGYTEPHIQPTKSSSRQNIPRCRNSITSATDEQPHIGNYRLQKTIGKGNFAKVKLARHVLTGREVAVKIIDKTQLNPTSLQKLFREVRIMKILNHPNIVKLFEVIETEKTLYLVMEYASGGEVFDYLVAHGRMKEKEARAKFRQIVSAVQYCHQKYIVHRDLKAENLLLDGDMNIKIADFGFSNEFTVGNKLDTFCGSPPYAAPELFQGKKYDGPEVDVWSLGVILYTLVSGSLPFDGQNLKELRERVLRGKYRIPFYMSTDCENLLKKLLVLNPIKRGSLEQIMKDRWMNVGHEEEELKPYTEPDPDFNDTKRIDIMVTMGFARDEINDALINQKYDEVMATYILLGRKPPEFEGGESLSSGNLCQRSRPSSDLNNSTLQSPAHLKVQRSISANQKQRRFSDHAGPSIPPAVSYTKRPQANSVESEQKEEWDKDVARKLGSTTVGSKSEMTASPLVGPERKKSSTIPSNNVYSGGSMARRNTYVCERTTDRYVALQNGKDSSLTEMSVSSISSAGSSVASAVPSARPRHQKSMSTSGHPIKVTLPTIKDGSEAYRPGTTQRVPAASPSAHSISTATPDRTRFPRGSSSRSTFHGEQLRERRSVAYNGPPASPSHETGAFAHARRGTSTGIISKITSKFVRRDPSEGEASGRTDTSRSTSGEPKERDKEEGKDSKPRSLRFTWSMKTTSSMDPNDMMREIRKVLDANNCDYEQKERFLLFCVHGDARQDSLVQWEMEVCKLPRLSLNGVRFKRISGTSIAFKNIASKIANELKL
Protocol: as §1

EPH-A2 = EPH-A2 (Homo sapiens, UniProt P29317); test: Kinome profiling EPH-A2; conditions: read-out: Inhibitory activity EPH-A2; for inhibition at 0.1 µM: 100 nM
EPH-A2, sequence (P29317 24-976): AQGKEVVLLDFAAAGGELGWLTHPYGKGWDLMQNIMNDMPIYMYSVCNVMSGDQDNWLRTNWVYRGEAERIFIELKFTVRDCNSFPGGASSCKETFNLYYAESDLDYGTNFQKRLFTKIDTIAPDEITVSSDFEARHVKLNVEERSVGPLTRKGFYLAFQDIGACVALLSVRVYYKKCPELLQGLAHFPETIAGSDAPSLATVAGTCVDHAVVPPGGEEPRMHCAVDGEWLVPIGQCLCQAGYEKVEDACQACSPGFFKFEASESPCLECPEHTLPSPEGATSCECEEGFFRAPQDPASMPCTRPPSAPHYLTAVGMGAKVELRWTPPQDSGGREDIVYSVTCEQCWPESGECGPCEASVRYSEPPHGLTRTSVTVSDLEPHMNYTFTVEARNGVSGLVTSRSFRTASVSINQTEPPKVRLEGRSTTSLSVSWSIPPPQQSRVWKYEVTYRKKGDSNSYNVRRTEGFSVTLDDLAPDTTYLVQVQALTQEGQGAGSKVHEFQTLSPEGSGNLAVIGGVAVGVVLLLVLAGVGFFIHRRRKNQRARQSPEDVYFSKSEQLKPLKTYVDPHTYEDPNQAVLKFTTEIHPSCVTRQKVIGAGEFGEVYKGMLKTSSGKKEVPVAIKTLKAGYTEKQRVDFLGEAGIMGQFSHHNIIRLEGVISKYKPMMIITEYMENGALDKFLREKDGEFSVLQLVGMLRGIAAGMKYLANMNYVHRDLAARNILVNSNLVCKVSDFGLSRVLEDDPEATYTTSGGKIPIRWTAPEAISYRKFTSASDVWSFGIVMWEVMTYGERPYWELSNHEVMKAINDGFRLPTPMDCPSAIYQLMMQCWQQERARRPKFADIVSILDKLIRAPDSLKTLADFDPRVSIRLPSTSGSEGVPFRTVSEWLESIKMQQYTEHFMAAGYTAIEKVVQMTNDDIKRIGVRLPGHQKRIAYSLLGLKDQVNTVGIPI
Protocol: as §1

MAPKAPK2 = MAPKAPK2 (Homo sapiens, UniProt P49137); test: Kinome profiling MAPKAPK2; conditions: read-out: Inhibitory activity MAPKAPK2; for inhibition at 0.1 µM: 100 nM
MAPKAPK2, sequence (P49137 whole entry): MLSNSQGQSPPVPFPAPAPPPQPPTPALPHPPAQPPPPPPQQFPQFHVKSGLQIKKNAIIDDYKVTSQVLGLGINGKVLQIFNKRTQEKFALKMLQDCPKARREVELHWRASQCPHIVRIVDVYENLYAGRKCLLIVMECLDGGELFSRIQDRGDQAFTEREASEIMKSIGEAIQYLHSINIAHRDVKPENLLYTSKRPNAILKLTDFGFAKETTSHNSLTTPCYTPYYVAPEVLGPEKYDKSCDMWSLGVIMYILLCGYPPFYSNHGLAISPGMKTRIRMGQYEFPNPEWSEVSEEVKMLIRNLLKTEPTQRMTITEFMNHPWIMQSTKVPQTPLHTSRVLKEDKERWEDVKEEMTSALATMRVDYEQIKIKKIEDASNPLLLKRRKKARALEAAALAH
Protocol: as §1

CAMK1δ = CAMK1δ (Homo sapiens, UniProt Q8IU85); test: Kinome profiling CAMK1δ; conditions: read-out: Inhibitory activity CAMK1δ; for inhibition at 0.1 µM: 100 nM
CAMK1δ, sequence (Q8IU85 whole entry): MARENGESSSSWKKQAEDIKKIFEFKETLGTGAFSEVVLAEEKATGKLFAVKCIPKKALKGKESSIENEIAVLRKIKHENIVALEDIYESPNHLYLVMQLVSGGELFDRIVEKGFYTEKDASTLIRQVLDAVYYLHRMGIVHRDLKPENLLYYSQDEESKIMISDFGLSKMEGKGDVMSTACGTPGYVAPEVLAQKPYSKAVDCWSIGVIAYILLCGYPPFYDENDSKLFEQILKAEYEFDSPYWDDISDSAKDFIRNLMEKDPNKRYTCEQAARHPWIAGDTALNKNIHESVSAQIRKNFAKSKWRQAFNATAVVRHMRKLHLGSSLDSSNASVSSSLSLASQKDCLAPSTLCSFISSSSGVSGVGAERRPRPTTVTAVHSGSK
Protocol: as §1

P38γ = target: T2, P38γ (Homo sapiens, UniProt P53778); test: Kinome profiling P38γ; conditions: read-out: Inhibitory activity P38γ; for inhibition at 0.1 µM: 100 nM
T2 sequence (P53778 1-367): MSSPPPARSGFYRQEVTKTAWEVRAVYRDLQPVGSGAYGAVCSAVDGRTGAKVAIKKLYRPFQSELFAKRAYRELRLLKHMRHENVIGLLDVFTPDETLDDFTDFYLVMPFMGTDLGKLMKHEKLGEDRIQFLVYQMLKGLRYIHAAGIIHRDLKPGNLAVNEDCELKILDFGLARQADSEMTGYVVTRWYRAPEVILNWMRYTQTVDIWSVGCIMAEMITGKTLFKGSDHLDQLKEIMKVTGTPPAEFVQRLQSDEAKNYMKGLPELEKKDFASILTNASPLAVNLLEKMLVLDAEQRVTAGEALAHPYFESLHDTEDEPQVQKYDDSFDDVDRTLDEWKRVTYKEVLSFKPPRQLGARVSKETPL
Protocol: as §1

PKC-α = PKC-α (Homo sapiens, UniProt P17252); test: Kinome profiling PKC-α; conditions: read-out: Inhibitory activity PKC-α; for inhibition at 0.1 µM: 100 nM
Protocol: as §1

IKK-ε = target: T3, IKK-ε (Homo sapiens, UniProt Q14164); test: Kinome profiling IKK-ε; conditions: read-out: Inhibitory activity IKK-ε; for inhibition at 0.1 µM: 100 nM
T3 sequence (Q14164 1-716): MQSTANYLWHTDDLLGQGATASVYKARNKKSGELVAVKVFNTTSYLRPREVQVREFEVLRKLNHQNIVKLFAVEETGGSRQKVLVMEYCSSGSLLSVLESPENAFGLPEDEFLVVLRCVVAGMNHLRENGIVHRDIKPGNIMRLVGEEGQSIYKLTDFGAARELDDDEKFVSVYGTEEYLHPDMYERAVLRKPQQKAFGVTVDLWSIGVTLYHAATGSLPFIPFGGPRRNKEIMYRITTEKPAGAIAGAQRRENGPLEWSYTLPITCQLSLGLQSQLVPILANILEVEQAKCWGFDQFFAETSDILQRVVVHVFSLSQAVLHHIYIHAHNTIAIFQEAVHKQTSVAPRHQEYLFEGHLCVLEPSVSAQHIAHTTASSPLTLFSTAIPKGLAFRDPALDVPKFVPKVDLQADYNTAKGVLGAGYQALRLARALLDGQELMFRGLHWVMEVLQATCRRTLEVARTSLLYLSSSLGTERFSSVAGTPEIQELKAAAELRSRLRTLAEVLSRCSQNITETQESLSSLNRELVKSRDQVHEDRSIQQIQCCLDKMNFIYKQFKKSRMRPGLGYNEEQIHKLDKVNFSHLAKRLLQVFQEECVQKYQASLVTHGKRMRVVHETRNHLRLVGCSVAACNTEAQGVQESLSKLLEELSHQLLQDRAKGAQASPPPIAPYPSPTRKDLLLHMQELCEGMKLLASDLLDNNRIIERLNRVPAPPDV
Protocol: as §1

GRK6, sequence (P43250 whole entry): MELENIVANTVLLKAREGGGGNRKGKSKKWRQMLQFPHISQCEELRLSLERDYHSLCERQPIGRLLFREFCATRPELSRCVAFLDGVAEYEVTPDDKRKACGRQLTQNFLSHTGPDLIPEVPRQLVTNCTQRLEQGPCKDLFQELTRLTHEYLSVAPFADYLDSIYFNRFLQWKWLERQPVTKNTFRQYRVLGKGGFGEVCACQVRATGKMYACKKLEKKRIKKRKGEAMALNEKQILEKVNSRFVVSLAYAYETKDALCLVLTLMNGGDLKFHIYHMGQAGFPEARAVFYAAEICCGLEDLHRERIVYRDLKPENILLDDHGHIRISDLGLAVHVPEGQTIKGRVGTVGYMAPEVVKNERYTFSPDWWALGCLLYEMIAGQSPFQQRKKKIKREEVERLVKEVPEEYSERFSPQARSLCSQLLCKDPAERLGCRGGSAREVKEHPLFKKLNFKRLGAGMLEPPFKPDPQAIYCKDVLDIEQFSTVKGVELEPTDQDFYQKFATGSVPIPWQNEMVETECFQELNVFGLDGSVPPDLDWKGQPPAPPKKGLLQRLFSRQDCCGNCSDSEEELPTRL

SMILES	inhibition at 0.1 µM (GRK6)	inhibition at 1 µM (GRK6)	inhibition at 0.1 µM (TRKA)	inhibition at 1 µM (TRKA)	inhibition at 0.1 µM (EPHA3)	inhibition at 1 µM (EPHA3)	inhibition at 0.1 µM (MARK1)	inhibition at 1 µM (MARK1)	inhibition at 0.1 µM (EPH-A2)	inhibition at 1 µM (EPH-A2)	inhibition at 0.1 µM (MAPKAPK2)	inhibition at 1 µM (MAPKAPK2)	inhibition at 0.1 µM (CAMK1δ)	inhibition at 1 µM (CAMK1δ)	inhibition at 0.1 µM (P38γ)	inhibition at 1 µM (P38γ)	inhibition at 0.1 µM (PKC-α)	inhibition at 1 µM (PKC-α)	inhibition at 0.1 µM (IKK-ε)	inhibition at 1 µM (IKK-ε)
COc1cc(-c2cc(-c3ccc(N4CCNCC4)cc3)cnc2C)cc(OC)c1OC [Compound 10, 1-(4-(6-methyl-5-(3,4,5-trimethoxyphenyl)pyridin-3-yl)phenyl)piperazine]	8%	3%	2%	1%	2%	3%	0%	2%	-2%	1%	4%	4%	1%	2%	-2%	1%	2%	3%	2%	2%
COc1cc(-c2cc(-c3ccc(N4CCNCC4)cc3)cnc2N)cc(OC)c1OC [Compound 15, 5-(4-(piperazin-1-yl)phenyl)-3-(3,4,5-trimethoxyphenyl)pyridin-2-amine]	0%	0%	5%	5%	8%	31%	3%	31%	-3%	4%	0%	-4%	0%	-1%	2%	1%	1%	6%	1%	20%
